ChEMBL document CHEMBL1201862, “PubChem BioAssay data set” (2004)
Where a name gives a salt, the structure may show the parent alone.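 Cultured in 96-well plates, cells were exposed to test compound for 48 hours across five concentrations. At the GI50, growth is halved.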 The source made the active and inactive calls. Rule as the data show it: active = GI50 up to about 1.1 µM and inactive = higher.

How the values were obtained:
Assay in all cases: NCI tumour cell line growth inhibition, 48 h
BT-549 = tested on: BT-549
EKVX = tested on: EKVX
HOP-62 = tested on: HOP-62
HOP-92 = tested on: HOP-92
KM12 = tested on: KM12
MOLT-4 = tested on: MOLT-4
NCI-H226 = tested on: NCI-H226
NCI-H23 = tested on: NCI-H23
NCI-H460 = tested on: NCI-H460
RPMI-8226 = tested on: RPMI-8226
SF-268 = tested on: SF-268
SF-539 = tested on: SF-539
SK-MEL-2 = tested on: SK-MEL-2
U-251 = tested on: U-251
CCRF-CEM = tested on: CCRF-CEM
HCT-116 = tested on: HCT-116
IGROV-1 = tested on: IGROV-1
LOX IMVI = tested on: LOX IMVI
NCI-H522 = tested on: NCI-H522
UACC-257 = tested on: UACC-257

Structure (SMILES) | GI50 (BT-549) | GI50 (EKVX) | GI50 (HOP-62) | GI50 (HOP-92) | GI50 (KM12) | GI50 (MOLT-4) | GI50 (NCI-H226) | GI50 (NCI-H23) | GI50 (NCI-H460) | GI50 (RPMI-8226) | GI50 (SF-268) | GI50 (SF-539) | GI50 (SK-MEL-2) | GI50 (U-251) | GI50 (CCRF-CEM) | GI50 (HCT-116) | GI50 (IGROV-1) | GI50 (LOX IMVI) | GI50 (NCI-H522) | GI50 (UACC-257)
Cn1nc(S(N)(=O)=O)s/c1=N/S(=O)(=O)c1ccc(N)cc1 | > 100 µM (inactive) | > 100 µM (inactive) | > 100 µM (inactive) | > 100 µM (inactive) | > 100 µM (inactive) | > 100 µM (inactive) | > 100 µM (inactive) | > 100 µM (inactive) | > 100 µM (inactive) | > 100 µM (inactive) | > 100 µM (inactive) | > 100 µM (inactive) | > 100 µM (inactive) | > 100 µM (inactive) | – | – | – | – | – | –
N#Cc1cc(-c2nc3ccc(F)cc3s2)ccc1N | > 100 µM (inactive) | 31.8 µM (inactive) | 72.1 µM (inactive) | > 100 µM (inactive) | > 100 µM (inactive) | > 100 µM (inactive) | > 100 µM (inactive) | > 100 µM (inactive) | > 100 µM (inactive) | > 100 µM (inactive) | > 100 µM (inactive) | 51.1 µM (inactive) | – | 63 µM (inactive) | > 100 µM (inactive) | 33.5 µM (inactive) | 3.27 µM (inactive) | 74.8 µM (inactive) | > 100 µM (inactive) | > 100 µM (inactive)
Cc1nnc2n1N=C(c1ccccc1)/C(=C/c1ccc(-c3ccc(Cl)cc3)o1)S2 | 11.4 µM (inactive) | 20 µM (inactive) | 15.3 µM (inactive) | 17.5 µM (inactive) | 13.4 µM (inactive) | 3.55 µM (inactive) | 14.3 µM (inactive) | 15.9 µM (inactive) | 15.1 µM (inactive) | 5.11 µM (inactive) | 14.3 µM (inactive) | – | 13.2 µM (inactive) | 12.1 µM (inactive) | 2.71 µM (inactive) | 12.2 µM (inactive) | 18.9 µM (inactive) | – | 10.6 µM (inactive) | 16.6 µM (inactive)
CN(C)S(=O)(=O)/N=C/c1cccc(/C=N/S(=O)(=O)N(C)C)c1 | 38.1 µM (inactive) | 64.9 µM (inactive) | > 100 µM (inactive) | 32.1 µM (inactive) | > 100 µM (inactive) | > 100 µM (inactive) | > 100 µM (inactive) | > 100 µM (inactive) | > 100 µM (inactive) | 63.1 µM (inactive) | 61.5 µM (inactive) | 23.9 µM (inactive) | – | > 100 µM (inactive) | 74.8 µM (inactive) | 33.3 µM (inactive) | – | > 100 µM (inactive) | – | > 100 µM (inactive)
COc1cc(COC(=O)N[C@H](C(=O)O)C(C)(C)C)c([N+](=O)[O-])cc1OC | > 100 µM (inactive) | > 100 µM (inactive) | > 100 µM (inactive) | > 100 µM (inactive) | > 100 µM (inactive) | > 100 µM (inactive) | > 100 µM (inactive) | > 100 µM (inactive) | > 100 µM (inactive) | > 100 µM (inactive) | > 100 µM (inactive) | > 100 µM (inactive) | – | > 100 µM (inactive) | > 100 µM (inactive) | > 100 µM (inactive) | > 100 µM (inactive) | – | – | > 100 µM (inactive)
C/C(=N\c1c2ccccc2nc2ccccc12)N(C)C | 25.8 µM (inactive) | 32.7 µM (inactive) | 16.5 µM (inactive) | 10.6 µM (inactive) | – | 12.2 µM (inactive) | 11.9 µM (inactive) | 15.2 µM (inactive) | – | 13.6 µM (inactive) | 27.4 µM (inactive) | – | 20 µM (inactive) | 23 µM (inactive) | 8.87 µM (inactive) | 10.4 µM (inactive) | 23.9 µM (inactive) | 11.6 µM (inactive) | 10.7 µM (inactive) | 16.9 µM (inactive)
O=C1C=C(c2c(-c3ccccc3)[nH]c3ccccc23)C(=O)N1c1ccccc1 | 6.73 µM (inactive) | 12.4 µM (inactive) | 0.135 µM (active) | 9.14 µM (inactive) | – | 25.2 µM (inactive) | 22.6 µM (inactive) | 10.7 µM (inactive) | 14.6 µM (inactive) | 5.6 µM (inactive) | 4.63 µM (inactive) | 8.24 µM (inactive) | 12.5 µM (inactive) | 13.5 µM (inactive) | 4.02 µM (inactive) | 6.49 µM (inactive) | 14.5 µM (inactive) | 3.77 µM (inactive) | – | 9.25 µM (inactive)
COc1ccc2nc3n(c2c1)C(c1c(F)cccc1Cl)SC3 (configuration not stated) | > 100 µM (inactive) | > 100 µM (inactive) | > 100 µM (inactive) | 41.8 µM (inactive) | > 100 µM (inactive) | > 100 µM (inactive) | – | > 100 µM (inactive) | > 100 µM (inactive) | > 100 µM (inactive) | – | – | > 100 µM (inactive) | > 100 µM (inactive) | > 100 µM (inactive) | > 100 µM (inactive) | > 100 µM (inactive) | > 100 µM (inactive) | – | > 100 µM (inactive)
C(=N\Nc1nnc(-c2nnc(N/N=C/c3ccccc3)o2)o1)/c1ccccc1 | > 10 µM (inactive) | > 10 µM (inactive) | > 10 µM (inactive) | > 10 µM (inactive) | > 10 µM (inactive) | > 10 µM (inactive) | > 10 µM (inactive) | > 10 µM (inactive) | > 10 µM (inactive) | > 10 µM (inactive) | > 10 µM (inactive) | > 10 µM (inactive) | – | > 10 µM (inactive) | > 10 µM (inactive) | > 10 µM (inactive) | > 10 µM (inactive) | – | – | > 10 µM (inactive)
NC(=O)NC1C(c2ccccc2)=C1c1ccccc1 | 12.6 µM (inactive) | 26.8 µM (inactive) | 36.4 µM (inactive) | 11.9 µM (inactive) | 19.2 µM (inactive) | 4.88 µM (inactive) | 5.08 µM (inactive) | 21.2 µM (inactive) | 15.5 µM (inactive) | 7.21 µM (inactive) | 13.4 µM (inactive) | 15.4 µM (inactive) | – | 13.9 µM (inactive) | 5.47 µM (inactive) | 15.7 µM (inactive) | 12.7 µM (inactive) | 13.5 µM (inactive) | – | 18.6 µM (inactive)
COc1ccc(OC)c(NC(=O)c2c(Cl)c(Cl)c(Cl)c(Cl)c2-c2nc3ccccc3[nH]2)c1 | > 100 µM (inactive) | > 100 µM (inactive) | > 100 µM (inactive) | > 100 µM (inactive) | > 100 µM (inactive) | 56.2 µM (inactive) | > 100 µM (inactive) | > 100 µM (inactive) | > 100 µM (inactive) | 45.4 µM (inactive) | > 100 µM (inactive) | > 100 µM (inactive) | – | – | 49.2 µM (inactive) | > 100 µM (inactive) | 89.1 µM (inactive) | > 100 µM (inactive) | > 100 µM (inactive) | > 100 µM (inactive)
CN(C)CCC=C1c2ccccc2C=Cc2ccccc21 [CYCLOBENZAPRINE HYDROCHLORIDE] | 17.4 µM (inactive) | 10.9 µM (inactive) | 16.5 µM (inactive) | 15.6 µM (inactive) | 18.5 µM (inactive) | 16.8 µM (inactive) | 0.0374 µM (active) | 18.7 µM (inactive) | 15.4 µM (inactive) | 18.3 µM (inactive) | 15.8 µM (inactive) | – | 16.3 µM (inactive) | 16.3 µM (inactive) | – | 15 µM (inactive) | 16.7 µM (inactive) | 16.7 µM (inactive) | 17.9 µM (inactive) | 14.8 µM (inactive)
